# Source: patent publication US20260007727A1, “DRUG THAT PROMOTES HEMOSTASIS” (BIOMEDIZINISCHE FORSCHUNG & BIO-PRODUKTE GMBH, priority 2022, published 2026)
# “And” between values parts separate entries of the source, which are not always exact repeats. Identical values can stand only once.
# Test system: rivaroxaban rabbit model
# Test: reversal of anticoagulation in a rivaroxaban rabbit model (claw cut)
# Assay type: in vivo, New Zealand White rabbits
# Protocol: In doing so, anesthetized New Zealand White rabbits were treated with the factor Xa inhibitor rivaroxaban to achieve anticoagulation. The increased tendency to bleed associated with anticoagulation was determined by cutting the claws. Upon intravenous administration of prethrombin-1, the blood loss was measured again after the claws had been cut.
smiles,measurement,setting,value
O=C(NC[C@H]1CN(c2ccc(N3CCOCC3=O)cc2)C(=O)O1)c1ccc(Cl)s1 [rivaroxaban],Blood loss after rivaroxaban,rivaroxaban 7 μg/kg body weight,22.3 mg
same,Blood loss after rivaroxaban,rivaroxaban 14 μg/kg body weight,11.3 mg
same,Blood loss after rivaroxaban,rivaroxaban 35 μg/kg body weight,30.4 mg
same,Blood loss after rivaroxaban,"rivaroxaban 70 μg/kg body weight, individual rabbits",165.0 mg and 98.7 mg and 20.8 mg and 51.8 mg and 77.4 mg and 108.5 mg and 51.2 mg
